11 compounds from ChEMBL document CHEMBL3991601, “The target landscape of clinical kinase drugs” (Science, 2017) can be followed below.

For assay [1], the target named is T1, Activin receptor type-1B (Homo sapiens, UniProt P36896).
T1 sequence (P36896 whole entry): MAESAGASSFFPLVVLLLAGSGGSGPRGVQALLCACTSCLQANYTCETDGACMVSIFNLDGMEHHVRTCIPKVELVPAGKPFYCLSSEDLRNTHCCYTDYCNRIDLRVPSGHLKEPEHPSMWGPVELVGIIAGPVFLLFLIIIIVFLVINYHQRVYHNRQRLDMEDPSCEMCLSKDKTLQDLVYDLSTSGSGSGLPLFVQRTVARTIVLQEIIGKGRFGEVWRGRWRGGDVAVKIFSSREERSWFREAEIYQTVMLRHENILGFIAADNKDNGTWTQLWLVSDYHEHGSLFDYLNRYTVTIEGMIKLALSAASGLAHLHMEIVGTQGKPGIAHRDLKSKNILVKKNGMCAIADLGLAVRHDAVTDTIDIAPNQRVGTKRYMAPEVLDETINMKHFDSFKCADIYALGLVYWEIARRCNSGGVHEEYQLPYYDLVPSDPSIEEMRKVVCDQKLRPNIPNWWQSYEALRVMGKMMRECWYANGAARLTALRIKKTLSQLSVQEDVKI

The target in assay [2] is Ribosomal protein S6 kinase alpha-5 (Homo sapiens, UniProt O75582).
Ribosomal protein S6 kinase alpha-5, sequence (O75582 whole entry): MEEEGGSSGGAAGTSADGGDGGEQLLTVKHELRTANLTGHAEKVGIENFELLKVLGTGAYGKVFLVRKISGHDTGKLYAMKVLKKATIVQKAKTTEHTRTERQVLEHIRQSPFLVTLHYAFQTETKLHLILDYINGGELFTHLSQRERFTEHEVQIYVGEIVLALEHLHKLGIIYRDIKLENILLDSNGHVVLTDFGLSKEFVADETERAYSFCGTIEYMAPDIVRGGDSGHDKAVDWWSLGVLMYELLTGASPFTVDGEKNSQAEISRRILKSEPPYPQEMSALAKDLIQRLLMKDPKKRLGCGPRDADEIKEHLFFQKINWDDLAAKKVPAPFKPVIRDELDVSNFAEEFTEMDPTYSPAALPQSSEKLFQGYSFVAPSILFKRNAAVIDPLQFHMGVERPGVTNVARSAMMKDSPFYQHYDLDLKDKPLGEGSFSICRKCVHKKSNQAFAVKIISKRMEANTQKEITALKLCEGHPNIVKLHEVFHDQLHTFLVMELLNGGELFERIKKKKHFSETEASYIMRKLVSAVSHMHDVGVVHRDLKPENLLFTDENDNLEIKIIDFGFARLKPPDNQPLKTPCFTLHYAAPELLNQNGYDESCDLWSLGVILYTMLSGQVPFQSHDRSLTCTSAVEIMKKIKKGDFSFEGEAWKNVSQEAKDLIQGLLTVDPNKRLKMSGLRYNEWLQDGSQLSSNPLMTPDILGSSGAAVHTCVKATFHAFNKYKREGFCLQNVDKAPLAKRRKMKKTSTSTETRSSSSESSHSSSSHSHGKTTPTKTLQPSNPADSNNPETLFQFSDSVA
Assay [3] addresses Cyclin-dependent kinase 12 (Homo sapiens, UniProt Q9NYV4).
For assay [4], the target named is Guanine nucleotide-binding protein G(i) subunit alpha-2 (Homo sapiens, UniProt P04899).
Guanine nucleotide-binding protein G(i) subunit alpha-2, sequence (P04899 whole entry): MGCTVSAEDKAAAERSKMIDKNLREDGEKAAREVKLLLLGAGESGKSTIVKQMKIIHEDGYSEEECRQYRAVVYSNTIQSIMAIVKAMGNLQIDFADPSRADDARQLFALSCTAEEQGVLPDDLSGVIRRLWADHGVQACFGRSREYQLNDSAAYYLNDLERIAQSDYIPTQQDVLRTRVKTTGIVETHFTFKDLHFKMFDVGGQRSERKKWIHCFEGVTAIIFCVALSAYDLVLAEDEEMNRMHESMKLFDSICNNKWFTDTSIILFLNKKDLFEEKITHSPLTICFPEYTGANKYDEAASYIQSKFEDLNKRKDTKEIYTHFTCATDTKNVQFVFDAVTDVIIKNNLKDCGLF
Assay [5] deals with Bone morphogenetic protein receptor type-1A (Homo sapiens, UniProt P36894).
Bone morphogenetic protein receptor type-1A, sequence (P36894 whole entry): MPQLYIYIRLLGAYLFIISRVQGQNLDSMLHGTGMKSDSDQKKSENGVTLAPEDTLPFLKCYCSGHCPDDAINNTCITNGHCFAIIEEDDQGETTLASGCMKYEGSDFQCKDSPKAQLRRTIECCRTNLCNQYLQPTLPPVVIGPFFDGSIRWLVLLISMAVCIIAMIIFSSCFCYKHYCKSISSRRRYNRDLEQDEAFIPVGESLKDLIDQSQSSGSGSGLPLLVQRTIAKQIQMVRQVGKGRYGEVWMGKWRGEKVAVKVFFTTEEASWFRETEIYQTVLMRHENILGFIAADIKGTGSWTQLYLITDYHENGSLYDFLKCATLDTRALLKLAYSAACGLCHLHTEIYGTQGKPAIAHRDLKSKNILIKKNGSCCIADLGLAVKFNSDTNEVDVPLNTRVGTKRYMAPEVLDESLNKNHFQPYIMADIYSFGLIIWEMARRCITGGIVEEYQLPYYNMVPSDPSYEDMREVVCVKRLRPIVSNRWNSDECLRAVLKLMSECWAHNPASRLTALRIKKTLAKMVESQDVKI
Assay [6] addresses Mitotic checkpoint serine/threonine-protein kinase BUB1 (Homo sapiens, UniProt O43683).
The target of assay [7] is T2, Uncharacterized protein FLJ45252 (Homo sapiens, UniProt Q6ZSR9).
T2 sequence (Q6ZSR9 whole entry): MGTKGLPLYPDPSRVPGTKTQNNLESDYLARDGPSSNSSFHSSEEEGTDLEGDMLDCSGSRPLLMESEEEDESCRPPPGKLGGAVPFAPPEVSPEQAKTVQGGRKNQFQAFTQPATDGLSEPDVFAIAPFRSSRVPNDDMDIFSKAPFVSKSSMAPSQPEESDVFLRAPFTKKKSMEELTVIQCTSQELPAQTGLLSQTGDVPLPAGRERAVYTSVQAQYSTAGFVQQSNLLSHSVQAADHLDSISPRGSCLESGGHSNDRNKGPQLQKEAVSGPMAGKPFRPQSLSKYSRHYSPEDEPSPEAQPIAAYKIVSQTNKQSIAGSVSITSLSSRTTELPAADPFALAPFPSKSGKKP
The conditions noted are these: read-out: Kd apparent; k-562, colo 205, sk-n-be(2) and mv-4-11.

Assay [8] has as its target Deoxycytidine kinase (Homo sapiens, UniProt P27707).
For assay [9], the target named is T3, AarF domain-containing protein kinase 1 (Homo sapiens, UniProt Q86TW2).
T3 sequence (Q86TW2 whole entry): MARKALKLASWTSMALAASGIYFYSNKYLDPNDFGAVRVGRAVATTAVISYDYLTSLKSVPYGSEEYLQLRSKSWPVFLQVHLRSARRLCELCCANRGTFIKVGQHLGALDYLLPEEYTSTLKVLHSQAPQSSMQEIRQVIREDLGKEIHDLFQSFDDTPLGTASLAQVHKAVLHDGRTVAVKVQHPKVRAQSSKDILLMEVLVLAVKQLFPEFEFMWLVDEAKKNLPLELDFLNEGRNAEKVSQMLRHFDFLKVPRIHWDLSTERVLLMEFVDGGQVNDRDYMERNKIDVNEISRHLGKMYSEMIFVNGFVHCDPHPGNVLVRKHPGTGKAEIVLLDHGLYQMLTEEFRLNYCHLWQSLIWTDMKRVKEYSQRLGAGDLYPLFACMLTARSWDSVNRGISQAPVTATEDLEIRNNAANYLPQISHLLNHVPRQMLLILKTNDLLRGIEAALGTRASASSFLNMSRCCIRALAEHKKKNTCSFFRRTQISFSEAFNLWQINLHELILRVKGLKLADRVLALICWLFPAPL

For assay [10], the target named is Mitogen-activated protein kinase 8 (Homo sapiens, UniProt P45983).
The target in assay [11] is T4, Ephrin type-B receptor 3 (Homo sapiens, UniProt P54753).
T4 sequence (P54753 whole entry): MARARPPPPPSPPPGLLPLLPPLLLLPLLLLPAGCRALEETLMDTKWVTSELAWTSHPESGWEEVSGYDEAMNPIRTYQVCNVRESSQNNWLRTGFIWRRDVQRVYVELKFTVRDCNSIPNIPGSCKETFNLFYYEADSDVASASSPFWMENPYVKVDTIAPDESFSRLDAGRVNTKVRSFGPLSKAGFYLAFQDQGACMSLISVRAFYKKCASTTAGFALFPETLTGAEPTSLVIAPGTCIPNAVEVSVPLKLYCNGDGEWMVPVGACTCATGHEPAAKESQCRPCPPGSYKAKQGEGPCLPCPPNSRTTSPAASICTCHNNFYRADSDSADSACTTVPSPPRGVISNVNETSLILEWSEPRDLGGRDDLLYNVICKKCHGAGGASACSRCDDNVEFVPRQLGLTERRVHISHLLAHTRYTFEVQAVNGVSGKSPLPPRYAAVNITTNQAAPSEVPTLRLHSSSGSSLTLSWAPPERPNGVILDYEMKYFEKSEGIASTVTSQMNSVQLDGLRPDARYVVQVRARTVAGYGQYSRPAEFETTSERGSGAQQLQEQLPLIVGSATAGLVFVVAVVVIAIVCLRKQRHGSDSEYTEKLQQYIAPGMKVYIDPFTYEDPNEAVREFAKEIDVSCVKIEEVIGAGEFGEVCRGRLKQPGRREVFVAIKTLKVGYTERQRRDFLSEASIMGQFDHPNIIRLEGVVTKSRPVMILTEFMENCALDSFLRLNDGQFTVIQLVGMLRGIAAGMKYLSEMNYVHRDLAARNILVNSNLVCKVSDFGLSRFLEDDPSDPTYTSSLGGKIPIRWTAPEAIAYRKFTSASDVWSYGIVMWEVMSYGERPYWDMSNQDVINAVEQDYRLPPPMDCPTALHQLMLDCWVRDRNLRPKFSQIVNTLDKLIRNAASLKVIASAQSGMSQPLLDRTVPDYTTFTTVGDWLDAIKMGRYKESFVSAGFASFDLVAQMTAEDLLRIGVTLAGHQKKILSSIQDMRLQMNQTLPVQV

In assay [12] the target is Dual specificity tyrosine-phosphorylation-regulated kinase 1A (Homo sapiens, UniProt Q13627).
The target in assay [13] is MAP kinase-activated protein kinase 2 (Homo sapiens, UniProt P49137).
MAP kinase-activated protein kinase 2, sequence (P49137 whole entry): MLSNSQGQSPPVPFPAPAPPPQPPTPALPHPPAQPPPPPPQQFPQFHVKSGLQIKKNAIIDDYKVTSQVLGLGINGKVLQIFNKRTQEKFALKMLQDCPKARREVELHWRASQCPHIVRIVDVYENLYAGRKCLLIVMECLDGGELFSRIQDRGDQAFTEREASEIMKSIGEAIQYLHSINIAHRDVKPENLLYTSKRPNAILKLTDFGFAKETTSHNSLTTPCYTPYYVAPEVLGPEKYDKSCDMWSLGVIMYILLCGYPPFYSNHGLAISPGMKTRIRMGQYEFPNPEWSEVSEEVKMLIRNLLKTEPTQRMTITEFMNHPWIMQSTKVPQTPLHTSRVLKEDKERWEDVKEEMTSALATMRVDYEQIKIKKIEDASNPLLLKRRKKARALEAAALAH

Structures are written as SMILES. Active and inactive are the calls of the source. Cut-off read from the data, not from the text of the source, for most assays here: actives have a measured Kd and inactives only a lower limit.
Note: in the data inactive means no Kd found up to 30 µM.

Cyclin-dependent kinase 12, sequence (Q9NYV4 whole entry): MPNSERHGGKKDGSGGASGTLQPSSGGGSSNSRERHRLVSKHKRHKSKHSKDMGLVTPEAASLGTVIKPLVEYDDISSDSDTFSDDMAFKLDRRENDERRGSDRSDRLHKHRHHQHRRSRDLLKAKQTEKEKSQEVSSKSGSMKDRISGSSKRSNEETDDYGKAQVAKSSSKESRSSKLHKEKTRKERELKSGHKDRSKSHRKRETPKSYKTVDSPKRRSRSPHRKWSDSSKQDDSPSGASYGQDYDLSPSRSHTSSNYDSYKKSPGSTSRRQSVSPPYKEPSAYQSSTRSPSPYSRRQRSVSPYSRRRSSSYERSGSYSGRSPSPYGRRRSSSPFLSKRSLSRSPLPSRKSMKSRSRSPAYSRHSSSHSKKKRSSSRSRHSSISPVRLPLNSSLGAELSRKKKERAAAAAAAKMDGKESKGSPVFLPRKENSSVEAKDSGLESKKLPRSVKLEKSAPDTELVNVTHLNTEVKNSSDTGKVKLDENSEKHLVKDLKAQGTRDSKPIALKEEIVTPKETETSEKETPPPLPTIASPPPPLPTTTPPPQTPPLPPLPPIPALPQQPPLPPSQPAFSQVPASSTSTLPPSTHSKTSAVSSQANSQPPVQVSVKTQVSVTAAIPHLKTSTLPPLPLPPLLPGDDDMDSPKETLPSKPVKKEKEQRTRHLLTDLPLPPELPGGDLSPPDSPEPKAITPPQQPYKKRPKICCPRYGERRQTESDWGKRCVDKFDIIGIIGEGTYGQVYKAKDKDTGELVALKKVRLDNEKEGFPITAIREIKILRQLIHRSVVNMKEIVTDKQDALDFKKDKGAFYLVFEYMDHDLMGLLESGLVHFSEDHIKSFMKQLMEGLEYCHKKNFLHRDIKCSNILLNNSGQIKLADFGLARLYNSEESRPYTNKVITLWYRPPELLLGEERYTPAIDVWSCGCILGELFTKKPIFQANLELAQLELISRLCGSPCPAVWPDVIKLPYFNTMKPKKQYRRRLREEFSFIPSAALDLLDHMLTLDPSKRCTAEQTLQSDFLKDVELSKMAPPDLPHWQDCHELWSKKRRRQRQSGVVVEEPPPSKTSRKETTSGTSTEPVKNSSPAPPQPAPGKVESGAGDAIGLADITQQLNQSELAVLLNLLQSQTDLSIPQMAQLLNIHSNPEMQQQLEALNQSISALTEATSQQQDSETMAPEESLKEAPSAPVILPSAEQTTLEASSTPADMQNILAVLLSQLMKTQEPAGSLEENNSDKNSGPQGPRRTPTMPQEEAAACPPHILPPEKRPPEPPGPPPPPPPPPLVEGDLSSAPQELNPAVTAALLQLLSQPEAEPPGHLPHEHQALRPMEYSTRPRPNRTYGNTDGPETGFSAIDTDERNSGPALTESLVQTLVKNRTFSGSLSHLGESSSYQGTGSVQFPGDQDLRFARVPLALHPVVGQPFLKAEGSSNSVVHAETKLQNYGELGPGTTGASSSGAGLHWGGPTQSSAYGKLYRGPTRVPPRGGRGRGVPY
Deoxycytidine kinase, sequence (P27707 whole entry, the tested form may be a part): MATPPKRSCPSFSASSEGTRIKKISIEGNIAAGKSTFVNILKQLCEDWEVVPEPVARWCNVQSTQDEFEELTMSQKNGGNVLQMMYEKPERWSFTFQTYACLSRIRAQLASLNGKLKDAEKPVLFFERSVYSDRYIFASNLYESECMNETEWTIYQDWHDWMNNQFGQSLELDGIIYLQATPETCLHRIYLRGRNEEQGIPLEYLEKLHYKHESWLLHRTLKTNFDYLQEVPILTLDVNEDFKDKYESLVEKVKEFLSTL
Mitotic checkpoint serine/threonine-protein kinase BUB1, sequence (O43683 whole entry): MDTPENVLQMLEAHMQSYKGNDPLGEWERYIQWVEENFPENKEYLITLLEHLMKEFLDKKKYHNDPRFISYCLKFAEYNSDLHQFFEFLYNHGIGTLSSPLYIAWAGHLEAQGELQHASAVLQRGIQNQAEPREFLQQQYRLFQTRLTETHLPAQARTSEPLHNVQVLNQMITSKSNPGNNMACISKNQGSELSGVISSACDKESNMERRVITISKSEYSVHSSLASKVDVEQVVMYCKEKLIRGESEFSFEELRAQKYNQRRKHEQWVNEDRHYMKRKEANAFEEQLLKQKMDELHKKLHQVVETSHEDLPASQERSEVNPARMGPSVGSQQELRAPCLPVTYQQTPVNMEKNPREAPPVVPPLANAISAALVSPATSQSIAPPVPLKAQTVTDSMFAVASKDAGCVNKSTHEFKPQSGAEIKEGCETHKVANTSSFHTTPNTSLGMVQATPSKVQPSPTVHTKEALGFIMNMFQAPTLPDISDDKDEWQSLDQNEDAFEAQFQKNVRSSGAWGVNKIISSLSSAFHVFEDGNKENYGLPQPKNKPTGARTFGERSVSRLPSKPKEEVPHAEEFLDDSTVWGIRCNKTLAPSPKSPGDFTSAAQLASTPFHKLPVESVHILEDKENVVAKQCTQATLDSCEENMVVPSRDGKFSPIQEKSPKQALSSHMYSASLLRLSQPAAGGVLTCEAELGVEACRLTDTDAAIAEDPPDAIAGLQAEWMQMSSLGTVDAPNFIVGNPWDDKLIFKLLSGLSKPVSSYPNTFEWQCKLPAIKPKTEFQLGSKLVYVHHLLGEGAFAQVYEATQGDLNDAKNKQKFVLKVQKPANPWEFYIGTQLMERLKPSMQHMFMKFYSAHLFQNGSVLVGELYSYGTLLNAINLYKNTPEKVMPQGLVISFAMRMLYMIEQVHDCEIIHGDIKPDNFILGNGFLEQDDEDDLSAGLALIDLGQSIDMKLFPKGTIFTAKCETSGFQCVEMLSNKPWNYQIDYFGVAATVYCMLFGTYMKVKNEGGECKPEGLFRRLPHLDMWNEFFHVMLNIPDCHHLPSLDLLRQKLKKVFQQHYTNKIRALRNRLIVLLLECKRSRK

In the case of `COc1cc(Nc2ncc3c(n2)-c2ccc(Cl)cc2C(c2c(F)cccc2OC)=NC3)ccc1C(=O)O` [ALISERTIB], the Kd in assay [1] was > 30 µM (inactive); in assay [2], > 30 µM (inactive); in assay [3], > 30 µM (inactive); in assay [4], 0.184 µM; in assay [5], > 30 µM (inactive); in assay [6] it was > 30 µM (inactive). Further, the Kd in assay [7], in [8] and in assay [9] was > 30 µM (inactive) in each case.

Regarding `CNC(=O)c1ccccc1Sc1ccc2c(/C=C/c3ccccn3)n[nH]c2c1` [AXITINIB], the Kd is > 30 µM (inactive) in [3]; > 30 µM (inactive) in assay [4]; > 30 µM (inactive) in assay [6]; 2.3 µM (active) in assay [7]; > 30 µM (inactive) in assay [8]; > 30 µM (inactive) in assay [9].

For the compound `CC(C)(C)c1nc(-c2cccc(NS(=O)(=O)c3c(F)cccc3F)c2F)c(-c2ccnc(N)n2)s1` [DABRAFENIB], the Kd was 0.601 µM (active) in assay [1]; > 30 µM (inactive) in [2]; > 30 µM (inactive) in [3]; > 30 µM (inactive) in assay [10]; > 30 µM (inactive) in assay [4]; > 30 µM (inactive) in [5]. The Kd in assay [6], in assay [7], in [11], in [8] and in assay [9] was > 30 µM (inactive) throughout.

`C[C@@H](Oc1cc(-n2cnc3ccc(CN4CCN(C)CC4)cc32)sc1C(N)=O)c1ccccc1C(F)(F)F` [GSK-461364]: the Kd in [3], in [4], in assay [6], in [7], in assay [8] and in assay [9] was > 30 µM (inactive) each time.

In the case of `Cc1[nH]c(/C=C2\C(=O)Nc3ccccc32)c(C)c1CCC(=O)O` [ORANTINIB], the Kd in [1] was > 30 µM (inactive); in [3], > 30 µM (inactive); in [4], > 30 µM (inactive); in assay [5], > 30 µM (inactive); in assay [6], > 30 µM (inactive); in assay [7], 1.18 µM (active). Also, the Kd in assay [11], in [8] and in assay [9] was > 30 µM (inactive) in each case.

Regarding `NC(=O)c1c(OCc2c(F)cc(Br)cc2F)nsc1NC(=O)NCCCCN1CCCC1` [OSI-632], the Kd in assay [1] was 0.004 µM (active); in [3], > 30 µM (inactive); in [4], > 30 µM (inactive); in assay [7] it was > 30 µM (inactive); in assay [11] it was > 30 µM (inactive); in [8], > 30 µM (inactive). Besides, in assay [9], the Kd was 0.281 µM (active).

On to `O=C(NOCCO)c1cc(CN2OCCCC2=O)c(F)c(F)c1Nc1ccc(I)cc1F` [RO-4987655], for which the Kd in assay [3], in [4], in assay [7], in assay [8] and in [9] was > 30 µM (inactive) throughout.

As for `N#CC[C@H](C1CCCC1)n1cc(-c2ncnc3[nH]ccc23)cn1` [RUXOLITINIB], the Kd was > 30 µM (inactive) in assay [3]; > 30 µM (inactive) in assay [4]; > 30 µM (inactive) in assay [6]; 0.196 µM (active) in assay [7]; > 30 µM (inactive) in assay [8]; > 30 µM (inactive) in assay [9].

With `O=C(Cc1ccc(-c2ccc(OCCN3CCOCC3)cc2)cn1)NCc1ccccc1` [TIRBANIBULIN], the Kd in assay [1], in assay [12], in assay [2], in assay [3], in assay [10] and in assay [5] was > 30 µM (inactive) in each case. Further, the Kd in [6], in [7], in assay [11], in [13], in [8] and in assay [9] was > 30 µM (inactive) throughout.

`Cc1cc(Nc2ncnc3ccc(NC4=NC(C)(C)CO4)cc23)ccc1Oc1ccn2ncnc2c1` [TUCATINIB]: the Kd in assay [1], in assay [12], in [2], in assay [3], in [10] and in assay [5] was > 30 µM (inactive) throughout. For the same compound, the Kd in assay [6], in assay [7], in [11], in assay [13], in assay [8] and in assay [9] was > 30 µM (inactive) throughout.

In the case of `C[C@@H](N)c1ccc(C(=O)Nc2ccnc3[nH]ccc23)cc1` [Y-39983], the Kd in [1] was > 30 µM (inactive); in assay [12], > 30 µM (inactive); in [2], > 30 µM (inactive); in assay [3], > 30 µM (inactive); in [10], > 30 µM (inactive); in assay [5] it was 0.34 µM. In addition, the Kd in [6] is > 30 µM (inactive); in assay [7], 0.106 µM (active); in assay [11], > 30 µM (inactive); in [13] it was > 30 µM (inactive); in assay [8] it was > 30 µM (inactive); in assay [9], > 30 µM (inactive).
